Measured values published in publication PMC13192270, “RhlR quorum-sensing receptor ligand sensitivity regulates the differential expression of phenazine genes in Pseudomonas aeruginosa” (Journal of Bacteriology, 2026).

Tested on: ΔrhlI strain expressing RhlR T58L
Test: RNA-seq gene expression
Format: cell-based, Pseudomonas aeruginosa
Parameters: opmD Expression value / mexI Expression value / mexH Expression value / mexG Expression value / lasB Expression value / rhlA Expression value / rhlB Expression value / rhlR Expression value / lecB Expression value / fhp Expression value / chiC Expression value / hcnA Expression value / mvfR Expression value / katB Expression value / norC Expression value / norB Expression value / katA Expression value: unit not given here
Settings: 2 µM C4HSL
Protocol: To determine the effects of hypo- and hypersensitivity to C4HSL on RhlR-dependent transcription activation in P. aeruginosa, we performed RNA-seq on ΔrhlI strains expressing WT RhlR, RhlR T58L, and RhlR A44M in the presence of 2 µM C4HSL. We chose this approach to better control the levels of C4HSL across samples. All gene expression analyses were done relative to a ΔrhlI strain without exogenous supplementation of AHL. Thus, we examined the total increase in C4HSL-dependent gene regulation. We observed increased rhlA RNA levels in strains expressing WT RhlR and the RhlR T58L variant compared to ΔrhlI without C4HSL or a strain expressing the RhlR A44M variant (Table 2; Table S1). […] To corroborate our RNA-seq data, we built an rhlA promoter fusion to mScarlet and assayed reporter levels in the same genetic backgrounds as our transcriptomic experiment (Fig. S7D). Strains expressing hypersensitive RhlR variants produced similar levels of fluorescent signal relative to the WT strain, while a strain expressing a hyposensitive RhlR variant had diminished levels of fluorescent reporter (Fig. S7D).
A total of […] of overnight cultures was back diluted 1:100 in 20 mL of fresh LB media and incubated for 5 h at 37°C with shaking. Cells were harvested by centrifugation, and pellets were frozen until RNA extraction. RNA was extracted using the Invitrogen PureLink RNA Mini Kit. Pellets were resuspended in 100 µL lysozyme solution containing 10 mM Tris-HCl pH 8.0, 0.1 mM EDTA, and 1 mg/mL lysozyme. Five microliters of 1% SDS was added, and the solution was mixed with a vortex and incubated at room temperature for 5 min. A total of 350 µL lysis buffer (Invitrogen) was added with 10 µL 2-mercaptoethanol for each 1 mL of lysis buffer and vortexed. Cells were lysed by bead beating (BioSpec 0.1 MM Zirconia/Silica Beads) for two rounds of 50 s. Lysed cells were transferred to fresh microcentrifuge tubes with 250 µL of 100% ethanol and mixed with a vortex. Samples were spun in spin cartridges (Invitrogen) at 12,000 × g for 15 s at room temperature, and the flow-through was discarded. A total of 700 µL Wash Buffer I (Invitrogen) was added and spun at 12,000 × g for 15 s at room temperature, and the flow-through was discarded. A total of 500 µL Wash Buffer II (Invitrogen) with ethanol was added and centrifuged for 12,000 × g for 15 s at room temperature; the flow-through was discarded, and RNA samples were washed again. Cells were spun at 12,000 × g for 1 min at room temperature to dry the membrane with the bound RNA. A total of 50 µL RNAse-free water was added to the center of the spin cartridge, incubated at room temperature for 1 min, and centrifuged for 2 min at ≥12,000 × g at room temperature. Extracted RNA was then frozen at −80°C until further use.
Bulk RNA was sent to SeqCenter (Pittsburgh, PA) where it was processed for paired-end Illumina sequencing via rRNA depletion using Ribo-Zero Plus (Illumina). Fastq files generated by SeqCenter were processed using Rockhopper with default settings ([61][–][63]). Briefly, fastq files were aligned to the genome of Pseudomonas aeruginosa UCBPP-PA14. The reads were subsequently normalized using upper-quartile normalization, and transcript abundance was determined by reads per kilobase per million mapped reads. Differential gene expression analysis was conducted using a negative binomial distribution model, outputting a P-value for each transcript. The P-values were then corrected for false discovery using the Benjamini-Hochberg procedure, resulting in the q-values reported here (Table S2). SignalMap v2.0 (NimbleGen Systems) was used to visualize read counts for phzABCDEFG1/2, phzH, phzM, and phzS (Fig. 5). Aligned sequences generated in Rockhopper were converted to GFF files, and genes of interest were isolated into unique GFF files ([37]).

CCCC(=O)N[C@H]1CCOC1=O [C4HSL, N-butyryl-L-homoserine lactone]
chiC Expression value: 3,615,357
fhp Expression value: 396,561.5
hcnA Expression value: 9,523
katA Expression value: 12,151,161
katB Expression value: 2,895,168
lasB Expression value: 19,328,123.5
lecB Expression value: 250,651
mexG Expression value: 332,571.5
mexH Expression value: 723,774.5
mexI Expression value: 830,527.5
mvfR Expression value: 267,969
norB Expression value: 7,897,306
norC Expression value: 3,026,578.5
opmD Expression value: 525,347
phnA Expression value: 1,406,882.5
phnB Expression value: 434,424
phzA1 Expression value: 6,068
phzA2 Expression value: 61,057.5
phzB1 Expression value: 73,793
phzB2 Expression value: 1,991,168
phzC1 Expression value: 272,395.5
phzC2 Expression value: 1,969,682.5
phzD1 Expression value: 1,058,250
phzD2 Expression value: 977,075.5
phzE1 Expression value: 2,058,712.5
phzE2 Expression value: 1,532,300.5
phzF1 Expression value: 1,047,752.5
phzF2 Expression value: 1,048,278.5
phzG1 Expression value: 312,421.5
phzG2 Expression value: 1,165,545
phzM Expression value: 79,302.5
phzS Expression value: 377,065.5
pqsA Expression value: 870,485.5
pqsB Expression value: 2,171,803.5
pqsC Expression value: 2,097,049
pqsD Expression value: 2,742,260
pqsE Expression value: 1,483,216.5
rhlA Expression value: 879,447.5
rhlB Expression value: 741,717
rhlR Expression value: 906,213
chiC Log2fold change (vs ΔrhlI without AHL): 4.706
fhp Log2fold change (vs ΔrhlI without AHL): 5.681
hcnA Log2fold change (vs ΔrhlI without AHL): −1.753
katA Log2fold change (vs ΔrhlI without AHL): 1.97
katB Log2fold change (vs ΔrhlI without AHL): 7.877
lasB Log2fold change (vs ΔrhlI without AHL): 2.595
lecB Log2fold change (vs ΔrhlI without AHL): −0.51
mexG Log2fold change (vs ΔrhlI without AHL): 6.357
mexH Log2fold change (vs ΔrhlI without AHL): 6.234
mexI Log2fold change (vs ΔrhlI without AHL): 5.568
mvfR Log2fold change (vs ΔrhlI without AHL): 0.187
norB Log2fold change (vs ΔrhlI without AHL): 7.599
norC Log2fold change (vs ΔrhlI without AHL): 7.238
opmD Log2fold change (vs ΔrhlI without AHL): 6.207
phnA Log2fold change (vs ΔrhlI without AHL): −0.7187
phnB Log2fold change (vs ΔrhlI without AHL): −0.4007
phzA1 Log2fold change (vs ΔrhlI without AHL): −2.305
phzA2 Log2fold change (vs ΔrhlI without AHL): 2.537
phzB1 Log2fold change (vs ΔrhlI without AHL): −2.194
phzB2 Log2fold change (vs ΔrhlI without AHL): 3.237
phzC1 Log2fold change (vs ΔrhlI without AHL): 0.3098
phzC2 Log2fold change (vs ΔrhlI without AHL): 3.428
phzD1 Log2fold change (vs ΔrhlI without AHL): 2.278
phzD2 Log2fold change (vs ΔrhlI without AHL): 2.374
phzE1 Log2fold change (vs ΔrhlI without AHL): 2.344
phzE2 Log2fold change (vs ΔrhlI without AHL): 2.345
phzF1 Log2fold change (vs ΔrhlI without AHL): 2.194
phzF2 Log2fold change (vs ΔrhlI without AHL): 2.188
phzG1 Log2fold change (vs ΔrhlI without AHL): 0.6164
phzG2 Log2fold change (vs ΔrhlI without AHL): 3.389
phzM Log2fold change (vs ΔrhlI without AHL): −2.128
phzS Log2fold change (vs ΔrhlI without AHL): −0.989
pqsA Log2fold change (vs ΔrhlI without AHL): −1.603
pqsB Log2fold change (vs ΔrhlI without AHL): −0.7949
pqsC Log2fold change (vs ΔrhlI without AHL): −0.8699
pqsD Log2fold change (vs ΔrhlI without AHL): −0.6876
pqsE Log2fold change (vs ΔrhlI without AHL): −0.7631
rhlA Log2fold change (vs ΔrhlI without AHL): 1.8
rhlB Log2fold change (vs ΔrhlI without AHL): 2.488
rhlR Log2fold change (vs ΔrhlI without AHL): 0.5062
